Data published in patent publication US10662060B2, “Manufacture of lipid-based nanoparticles using a dual asymmetric centrifuge” (priority 2004, dated 2020).

What was measured:
[1] = Inclusion efficiency for bendamustine in VPG (ion exchanger separation of free drug); format: physicochemical; conditions: direct inclusion in VPG by speed mixing, 3540 rpm 30 min; ± SD
Experimental: (§1) Within the context of the present invention, the “enclosure efficiency” is the ratio (percentage) of the amount of the measured substance (e.g., of an active substance) which is included in the lipid-based nanoparticles, associated to the nanoparticles or incorporated into the nanoparticles, to the total amount of the respective substance used for the formulation.
Into a 25 ml injection bottle (outer diameter: 36 mm), 1.0 g of the mixture of hydrogenated egg phosphatidylcholine and cholesterol (55/45 mole %) existing as a solid solution as well as 1.0 g of glass beads (diameter 1 mm) was weighed under sterile conditions. The bottle was flange-sealed. Through the septum, 1.5 ml of a Bendamustin® hydrochloride solution (containing 9.09 mg of bendamustine/ml; the solution was prepared by reconstitution from Bendamustin of Ribosepharm; thus, 0.9% NaCl solution was injected into the medicine bottle with the lyophilized medicament) was added. […] Samples of the VPGs containing bendamustine were taken, and the inclusion efficiency for bendamustine was determined to be 40.6±3.08% (SD) (separation of the free bendamustine: by ion exchanger, Moog et al., Cancer Chem Pharmacol 49: 356 (2002), bendamustine analytics: Maas, B. et al., Pharmazie 49: 775-777 (1994)). The mean size of the vesicles was determined by PCS to be 62.5±3.5 nm (SD) (n: 8).

[2] = Inclusion efficiency for gemcitabine in VPG; format: physicochemical; conditions: for Inclusion efficiency: then passive loading 60° C. 2 hours
Experimental: as §1
Into a 25 ml injection bottle (outer diameter: 36 mm), 1.48 g of the mixture of hydrogenated egg phosphatidylcholine and cholesterol (55/45 mole %) existing as a solid solution as well as 3 g of glass beads (diameter 1 mm) was weighed under sterile conditions. The bottle was flange-sealed. Through the septum, 500 μl of a Gemzar® solution (containing 38.02 mg of gemcitabine/ml; Gemzar® is the name of the gemcitabine-containing medicament of the company Lilly, one injection bottle contains 200 mg of gemcitabine (lyophilized) and is reconstituted with 5 ml of 0.9% NaCl) as well as 2.22 g of 5% mannitol solution was added. The mixture was subjected to speed mixing at 3540 rpm for 20 minutes to form gemcitabine-containing VPG.
Into a 25 ml injection bottle, 3.7 g of VPG (660 mM lipid, mixture of hydrogenated egg phosphatidylcholine and cholesterol (55/45 mole %), existing as a solid solution) was charged, and the bottle was centrifuged briefly, so that a uniformly thick layer of VPG formed at the bottom of the vessel. To this layer, 500 μl of a Gemzar® solution was added (contains 38.02 mg of gemcitabine/ml; Gemzar® is the name of the gemcitabine-containing medicament of the company Lilly, one injection bottle contains 200 mg of gemcitabine (lyophilized) and is reconstituted with 5.0 ml of 0.9% NaCl). […]
Subsequently, the VPG-gemcitabine mixture as well as a comparative sample in which gemcitabine was incorporated into the VPG by two shaking steps for 10 and 5 minutes, respectively, with an incubation break for 1 hour between, incubated at 60° C. for 2 hours for passive loading, the VPG was subsequently redispersed, and the inclusion efficiency for gemcitabine was determined.

[3] = empty VPG by high-pressure homogenization, gemcitabine incorporated by passive loading (EP 1 087 752); cited from earlier work
[4] = Inclusion efficiency for trypan blue in liposomes (absorption spectroscopy of supernatant); format: physicochemical; conditions: EPC3/cholesterol 55/45; 3540 rpm 10 min
Experimental: Within the context of the present invention, the “enclosure efficiency” is the ratio (percentage) of the amount of the measured substance (e.g., of an active substance) which is included in the lipid-based nanoparticles, associated to the nanoparticles or incorporated into the nanoparticles, to the total amount of the respective substance used for the formulation. Into two glass vials (diameter 10 mm), 100 mg each of glass beads (diameter 1 mm) and 50 mg each of the mixture of hydrogenated egg phosphatidylcholine and cholesterol (55/45 mole %) existing as a solid solution was weighed. Into one vial, 75 μl of a trypan blue solution (1000 μl of commercially available trypan blue solution (0.4%) plus 30 ml of 25% ammonia solution) was pipetted. Into the second vial, 75 μl of 0.9% NaCl solution was added. The closed vials were subjected to speed mixing at 3540 rpm for 10 minutes each. The liposome gel loaded with trypan blue solution was redispersed with 250 μl of NaCl solution. The liposome gel prepared with saline only was redispersed with 175 μl of NaCl solution plus 75 μl of trypan blue solution. […] In the supernatant, the trypan blue concentration was subsequently determined by absorption spectroscopy, and the inclusion efficiency was calculated. […]

[5] = Mean size of liposomes / lipid-based nanoparticles by photon correlation spectroscopy (PCS); format: physicochemical
[6] = Inclusion efficiency for RNA-Cy3 in liposomes (fluorescence spectroscopy of supernatant); format: physicochemical; conditions: 1 μM RNA-Cy3, 3540 rpm 10 min
Experimental: as §1
Into two glass vials (diameter 10 mm), 100 mg each of glass beads (diameter 1 mm) and 50 mg each of the mixture of hydrogenated egg phosphatidylcholine and cholesterol (55/45 mole %) existing as a solid solution was weighed. Into one vial, 75 μl of a 1 μM RNA-Cy3 solution (RNA: 27mer; 5′-GGA GCU CGC U T**C GGC GAG GUC GUG CCA-3′; T**=thymidine-C6-amino-NHS-Cy3; Cy3: fluorescence dye; Qiagen) was pipetted. Into the second vial, 75 μl of NaCl solution was added. The closed vials were subjected to speed mixing at 3540 rpm for 10 minutes each. The liposome gel loaded with RNA-Cy3 solution was redispersed with 250 μl of NaCl solution. […] In the supernatant, the relative concentrations of fluorescence-labeled RNA were subsequently determined by fluorescence spectroscopy (em: 565, ex; 515 nm), and the inclusion efficiency for RNA-Cy3 was calculated by dividing the values by one another (60.1%). The mean size of the redispersed vesicles was determined by means of PCS to be 127.8 nm. […]

Molecule: Cn1c(CCCC(=O)O)nc2cc(N(CCCl)CCCl)ccc21 [bendamustine]
- inclusion efficiency for bendamustine [1]: 40.6±3.08%

Molecule: Nc1ccn([C@@H]2O[C@H](CO)[C@@H](O)C2(F)F)c(=O)n1 [gemcitabine]
- inclusion efficiency for gemcitabine ([2]; direct inclusion in VPG by speed mixing, 3540 rpm 20 min): 80.7%
- Inclusion efficiency ([2]; gemcitabine incorporated into prefabricated VPG by shaking (10 and 5 min)): 47%
- Inclusion efficiency ([2]; gemcitabine incorporated into prefabricated VPG by speed mixing (0.5 min)): 44%
- inclusion efficiency for passive loading [3]: 43-47%

Molecule: Cc1cc(-c2ccc(/N=N/c3c(S(=O)(=O)O)cc4cc(S(=O)(=O)O)cc(N)c4c3O)c(C)c2)ccc1/N=N/c1c(S(=O)(=O)O)cc2cc(S(=O)(=O)O)cc(N)c2c1O [trypan blue]
- inclusion efficiency for trypan blue in liposomes by speed mixing [4]: 51%

Molecule: RNA-Cy3: fluorescence-labeled RNA 27mer 5′-GGA GCU CGC U T**C GGC GAG GUC GUG CCA-3′, T**=thymidine-C6-amino-NHS-Cy3 (Qiagen) (chain 1 GGAGCUCGCUT; chain 2 CGGCGAGGUCGUGCCA; Cy3 label on thymidine-C6-amino, chemistry not fully specified)
- mean size of the redispersed vesicles ([5]; RNA-Cy3-loaded negatively charged liposomes (hydrogenated egg PC/cholesterol/DPPG 46/33/20)): 238.1 nm
- mean size of the redispersed vesicles ([5]; RNA-Cy3-loaded neutral liposomes (hydrogenated egg PC/cholesterol 55/45)): 127.8 nm
- inclusion efficiency for RNA-Cy3 ([6]; negatively charged liposomes (hydrogenated egg PC/cholesterol/DPPG 46/33/20)): 82.9%
- inclusion efficiency for RNA-Cy3 ([6]; neutral liposomes (hydrogenated egg PC/cholesterol 55/45)): 60.1%
